According to patent publication US20240174603A1 (Rappta Therapeutics Oy, priority 2021, published 2024):

These compounds were tested on LNCaP cells (assay: LNCaP cell viability assay (MTS)). Conditions: Homo sapiens, LNCaP, 48 h, LNCaP cell line.
Type: cell-based
Method in brief: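 LNCaP cells (5000/well) treated 24 h after plating with compound at 1–80 µM for 48 h. Relative cell number read by MTS; GI50 from four-parameter variable-slope log(inhibitor) fit with bottom constrained to zero.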
In the case of CS(=O)(=O)c1cc(CNS(=O)(=O)c2ccc(OC(F)(F)F)cc2)cc(C(F)(F)F)c1 [Compound 82, N-(3-(methylsulfonyl)-5-(trifluoromethyl)benzyl)-4-(trifluoromethoxy)benzenesulfonamide], the GI50 is reported as 64 µM. Compound CCOC(=O)C(CC(C)CC)NS(=O)(=O)c1ccc(OC(F)(F)F)cc1 (centres unmarked) [Compound 47, Ethyl 4-methyl-2-((4-(trifluoromethoxy)phenyl)sulfonamido)hexanoate] has a GI50 of 70 µM. Work on CCCC(NS(=O)(=O)c1ccc(OC(F)(F)F)cc1)C(=O)N(C)C1CCCCCC1 (centres unmarked) [Compound 4, N-cycloheptyl-N-methyl-2-((4-(trifluoromethoxy)phenyl)sulfonamido)pentanamide] yielded a GI50 of 54 µM. With O=S(=O)(NC(CN1CCNCC1)c1ccc(Cl)c(F)c1)c1ccc(OC(F)(F)F)cc1 (centres unmarked) [Compound 258, N-(1-(4-chloro-3-fluorophenyl)-2-(piperazin-1-yl)ethyl)-4-(trifluoromethoxy)benzenesulfonamide] the GI50 was 11.3 µM. Work on CC(NS(=O)(=O)c1ccc(OC(F)(F)F)cc1)c1cc(F)ccc1N1CCC(O)CC1 (centres unmarked) [Compound 21, N-(1-(5-fluoro-2-(4-hydroxypiperidin-1-yl)phenyl)ethyl)-4-(trifluoromethoxy)benzenesulfonamide] yielded a GI50 of 46.8 µM. CN(C)CC(NS(=O)(=O)c1ccc(Oc2ccccc2)cc1)c1cccc(C(F)(F)F)c1 (centres unmarked) [Compound 189, N-(2-(dimethylamino)-1-(3-(trifluoromethyl)phenyl)ethyl)-4-phenoxybenzenesulfonamide] gave a GI50 of 12.1 µM. O=S(=O)(NCC1(c2cccc(C(F)(F)F)c2)CCC1)c1ccc(OC(F)(F)F)cc1 [Compound 57, 4-(trifluoromethoxy)-N-((1-(3-(trifluoromethyl)phenyl)cyclobutyl)methyl)benzenesulfonamide] showed a GI50 of 38 µM. CCOC(=O)C(CC1CCOC1)NS(=O)(=O)c1ccc(OC(F)(F)F)cc1 (centres unmarked) [Compound 110, Ethyl 3-(tetrahydrofuran-3-yl)-2-((4-(trifluoromethoxy)phenyl)sulfonamido)propanoate] showed a GI50 of 61 µM. In the case of CN(C)CC(NS(=O)(=O)c1ccc(Cl)cc1)c1ccc(Cl)c(Cl)c1 (centres unmarked) [Compound 164, 4-chloro-N-(1-(3,4-dichlorophenyl)-2-(dimethylamino)ethyl)benzenesulfonamide], the GI50 is reported as 28.2 µM. O=S(=O)(NC(c1ccc(F)c(C(F)(F)F)c1)C1CC1)c1ccc(OC(F)(F)F)cc1 (centres unmarked) [Compound 34, N-(cyclopropyl(4-fluoro-3-(trifluoromethyl)phenyl)methyl)-4-(trifluoromethoxy)benzenesulfonamide] showed a GI50 of 40.1 µM. CN(C)CC(NS(=O)(=O)c1cccc(C(F)(F)F)c1)c1ccc(Cl)c(Cl)c1 (centres unmarked) [Compound 162, N-(1-(3,4-dichlorophenyl)-2-(dimethylamino)ethyl)-3-(trifluoromethyl)benzenesulfonamide] gave a GI50 of 52.7 µM. For COC(=O)C[C@@H](Cc1ccccc1)NS(=O)(=O)c1ccc(OC(F)(F)F)cc1 [Compound 6, Methyl (R)-4-phenyl-3-((4-(trifluoromethoxy)phenyl)sulfonamido)butanoate], the GI50 was 61.1 µM. CC[C@H](NS(=O)(=O)c1ccc(OC(F)(F)F)cc1)c1cc(F)ccc1F [Compound 66, (S)—N-(1-(2,5-difluorophenyl)propyl)-4-(trifluoromethoxy)benzenesulfonamide] was tested, and the GI50 was 35 µM. With O=S(=O)(NCC1(c2ccc(Cl)c(Cl)c2)CCNC1)c1ccc(OC(F)(F)F)cc1 (centres unmarked) [Compound 253, N-((3-(3,4-dichlorophenyl)pyrrolidin-3-yl)methyl)-4-(trifluoromethoxy)benzenesulfonamide] the GI50 was 10.7 µM. CN(C)CC(NS(=O)(=O)/C=C/c1ccccc1)c1ccc(Cl)c(Cl)c1 (centres unmarked) [Compound 174, (E)-N-(1-(3,4-dichlorophenyl)-2-(dimethylamino)ethyl)-2-phenylethene-1-sulfonamide] showed a GI50 of 30.9 µM. For CN(C)C(=O)[C@H](Cc1ccc(Cl)c(Cl)c1)NS(=O)(=O)c1ccc(OC(F)(F)F)cc1 [Compound 249, (S)-3-(3,4-dichlorophenyl)-N,N-dimethyl-2-((4-(trifluoromethoxy)phenyl)sulfonamido)propenamide], the GI50 was 65.3 µM. For CC(C)CC(CCO)NS(=O)(=O)c1ccc(OC(F)(F)F)cc1 (centres unmarked) [Compound 10, N-(1-hydroxy-5-methylhexan-3-yl)-4-(trifluoromethoxy)benzenesulfonamide], the GI50 was 5.47 µM. In the case of CC(O)COc1ccccc1CNS(=O)(=O)c1ccc(OC(F)(F)F)cc1 (centres unmarked) [Compound 11, N-(2-(2-hydroxypropoxy)benzyl)-4-(trifluoromethoxy)benzenesulfonamide], the GI50 is reported as 30.9 µM. Compound O=S(=O)(NC(c1cccc(Cl)c1)C1CCCC1)c1ccc(OC(F)(F)F)cc1 (centres unmarked) [Compound 41, N-((3-chlorophenyl)(cyclopentyl)methyl)-4-(trifluoromethoxy)benzenesulfonamide] has a GI50 of 37.3 µM. O=S(=O)(NCC1(c2cc(C(F)(F)F)ccc2Cl)CC1)c1ccc(OC(F)(F)F)cc1 [Compound 88, N-((1-(2-chloro-5-(trifluoromethyl)phenyl)cyclopropyl)methyl)-4-(trifluoromethoxy)benzenesulfonamide] was tested, and the GI50 was 25 µM. For O=S(=O)(NC(c1cccc(C(F)(F)F)c1)C1CCCCC1)c1ccc(OC(F)(F)F)cc1 (centres unmarked) [Compound 36, N-(cyclohexyl(3-(trifluoromethyl)phenyl)methyl)-4-(trifluoromethoxy)benzenesulfonamide], the GI50 was 29.1 µM. Work on CN1CCN(CC(NS(=O)(=O)c2ccc(Oc3ccccc3)cc2)c2ccc(Cl)cc2)CC1 (centres unmarked) [Compound 234, N-(1-(4-chlorophenyl)-2-(4-methylpiperazin-1-yl)ethyl)-4-phenoxybenzenesulfonamide] yielded a GI50 of 12.1 µM. O=S(=O)(NCC1(c2ccc(Cl)c(Cl)c2)CC1)c1ccc(OC(F)(F)F)cc1 [Compound 227, N-((1-(3,4-dichlorophenyl)cyclopropyl)methyl)-4-(trifluoromethoxy)benzenesulfonamide] gave a GI50 of 48.6 µM. CC(C)(C)Oc1ccccc1CNS(=O)(=O)c1ccc(OC(F)(F)F)cc1 [Compound 78, N-(2-(tert-butoxy)benzyl)-4-(trifluoromethoxy)benzenesulfonamide] gave a GI50 of 46 µM. CC(C)(C)OC(=O)NC[C@@H](NS(=O)(=O)c1ccc(OC(F)(F)F)cc1)c1ccccc1 [Compound 115, tert-butyl (S)-(2-phenyl-2-((4-(trifluoromethoxy)phenyl)sulfonamido)ethyl)carbamate] gave a GI50 of 51.6 µM. O=S(=O)(NC(CC1CC1)c1cc(F)cc(Br)c1)c1ccc(OC(F)(F)F)cc1 (centres unmarked) [Compound 72, N-(1-(3-bromo-5-fluorophenyl)-2-cyclopropylethyl)-4-(trifluoromethoxy)benzenesulfonamide] was tested, and the GI50 was 17 µM. CN(C)C[C@@H](NS(=O)(=O)c1ccc(OC(F)(F)F)c([N+](=O)[O-])c1)c1ccc(Cl)c(Cl)c1 (single isomer, unassigned) [Compound 203, N-(1-(3,4-dichlorophenyl)-2-(dimethylamino)ethyl)-3-nitro-4-(trifluoromethoxy)benzenesulfonamide] was tested, and the GI50 was 1.4 µM. Work on O=S(=O)(NCC1(c2ccccc2)CCNCC1)c1ccc(OC(F)(F)F)cc1 [Compound 260, N-((4-phenylpiperidin-4-yl)methyl)-4-(trifluoromethoxy)benzenesulfonamide] yielded a GI50 of 33.6 µM. CN(C)CC(NS(=O)(=O)c1cccc(-c2ccccc2)c1)c1ccc(Cl)c(Cl)c1 (single isomer, unassigned) [Compound 197, N-(1-(3,4-dichlorophenyl)-2-(dimethylamino)ethyl)-[1,1′-biphenyl]-3-sulfonamide] gave a GI50 of 19.3 µM. With O=S(=O)(NCC1(c2cccs2)CCCC1)c1ccc(OC(F)(F)F)cc1 [Compound 61, N-((1-(thiophen-2-yl)cyclopentyl)methyl)-4-(trifluoromethoxy)benzenesulfonamide] the GI50 was 38 µM. Work on CC(C)c1ccc(S(=O)(=O)NC(CN(C)C)c2ccc(Cl)c(Cl)c2)cc1 (centres unmarked) [Compound 213, N-(1-(3,4-dichlorophenyl)-2-(dimethylamino)ethyl)-4-isopropylbenzenesulfonamide] yielded a GI50 of 25.2 µM. Work on O=S(=O)(NCC1CCCCC1c1ccccc1)c1ccc(OC(F)(F)F)cc1 (centres unmarked) [Compound 49, N-((2-phenylcyclohexyl)methyl)-4-(trifluoromethoxy)benzenesulfonamide] yielded a GI50 of 39 µM. With O=S(=O)(NC(CC1CC1)c1ccccc1)c1ccc(OC(F)(F)F)cc1 (centres unmarked) [Compound 19, N-(2-cyclopropyl-1-phenylethyl)-4-(trifluoromethoxy)benzenesulfonamide] the GI50 was 51.9 µM. O=S(=O)(NC(CN1CCNCC1)c1ccc(Cl)cc1)c1ccc(OC(F)(F)F)cc1 (centres unmarked) [Compound 257, N-(1-(4-chlorophenyl)-2-(piperazin-1-yl)ethyl)-4-(trifluoromethoxy)benzenesulfonamide] gave a GI50 of 11.6 µM.

Same assay, conditions: LNCaP cell line, 48 hours
Compound CN(C)CC(NS(=N)(=O)c1ccc(OC(F)(F)F)cc1)c1ccc(Cl)c(Cl)c1 (single isomer, unassigned) [Compound 165b, N-(1-(3,4-dichlorophenyl)-2-(dimethylamino)ethyl)-4-(trifluoromethoxy)benzenesulfonimidamide] has a GI50 of 53.8 µM. For O=S(=O)(NC(c1cc(Cl)cc(Cl)c1)C1CCCCC1)c1ccc(OC(F)(F)F)cc1 (single isomer, unassigned) [Compound 141, N-(cyclohexyl(3,5-dichlorophenyl)methyl)-4-(trifluoromethoxy)benzenesulfonamide], the GI50 was 21.3 µM. In the case of CN(C)CC(NS(=O)(=O)c1ccc(OC(F)(F)F)cc1)c1cccc(C(F)(F)F)c1 (single isomer, unassigned) [Compound 177, N-(2-(dimethylamino)-1-(3-(trifluoromethyl)phenyl)ethyl)-4-(trifluoromethoxy)benzenesulfonamide], the GI50 is reported as 24.9 µM. For CN(C)C[C@@H](NS(=O)(=O)c1ccc(OC(F)(F)F)c([N+](=O)[O-])c1)c1ccc(Cl)c(Cl)c1 (single isomer, unassigned) [Compound 204, N-(1-(3,4-dichlorophenyl)-2-(dimethylamino)ethyl)-3-nitro-4-(trifluoromethoxy)benzenesulfonamide], the GI50 was 1.14 µM.
